Results on one compound are retold here after ChEMBL document CHEMBL2176973, “Synthesis and SAR Studies of Fused Oxadiazines as γ-Secretase Modulators for Treatment of Alzheimer's Disease” (ACS Med Chem Lett, 2012).

The structures appear in SMILES notation.

Data set [1] can be described thus: Drug level in rat brain at 10 mg/kg, po after 6 hrs. It is filed as ADME, organism-based. More on the design: dose 10 mg/kg, route oral. To be noted: read-out: Drug uptake.
A short description of data set [2]: AUC (0 to 6 hrs) in rat plasma at 10 mg/kg, po. It is filed as ADME, organism-based. Also noted: time < 6 hr, dose 10 mg/kg, route oral.
A short description of data set [3]: Ratio of drug level in brain to plasma rat at 10 mg/kg, po after 6 hrs. It is filed as ADME, organism-based. To be noted: read-out: BPR. Also noted: dose 10 mg/kg, route oral.
In the next data set the test system is Rattus norvegicus. Description: Antialzheimer's activity in rat assessed as reduction of amyloid-beta-42 level in CSF at 10 mg/kg, po after 3 hrs by AlphaLISA amyloid assay. It is filed as functional. A general note: In Alpha technology, singlet oxygen from a donor bead excites a nearby acceptor bead.
A further data set deals with hERG (KCNH2) (Homo sapiens, UniProt Q12809). In words: Inhibition of human ERG at 10 uM.
Data set [4] has as its target T1, Nuclear receptor subfamily 1 group I member 2 (Homo sapiens, UniProt O75469).
T1 sequence (O75469 whole entry): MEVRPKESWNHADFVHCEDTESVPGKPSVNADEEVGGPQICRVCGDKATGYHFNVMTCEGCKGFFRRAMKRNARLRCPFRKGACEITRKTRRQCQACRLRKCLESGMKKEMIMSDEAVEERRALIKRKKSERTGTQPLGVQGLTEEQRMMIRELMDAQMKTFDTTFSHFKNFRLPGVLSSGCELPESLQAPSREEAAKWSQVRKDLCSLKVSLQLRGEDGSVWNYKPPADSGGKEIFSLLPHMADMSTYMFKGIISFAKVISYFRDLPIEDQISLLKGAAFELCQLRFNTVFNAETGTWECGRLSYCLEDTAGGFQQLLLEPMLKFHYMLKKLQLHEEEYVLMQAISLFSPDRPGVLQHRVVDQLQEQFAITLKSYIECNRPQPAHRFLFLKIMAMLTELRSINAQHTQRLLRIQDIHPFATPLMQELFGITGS
Description: Induction of PXR.

A further data set addresses Gamma-secretase. Description: Modulation of gamma-secretase expressed in HEK293 cells co-expressing APPsw-lon assessed as reduction of amyloid-beta-42 level by sandwich immunoassay. It is filed as cell-based, Homo sapiens.
Data set [5] can be described thus: Inhibition of CYP450. It is filed as ADME.
Data set [6] addresses Gamma-secretase (Homo sapiens) (UniProt Q96BI3+Q9NZ42+Q8WW43+P49768+Q92542+P49810). Description: Modulation of gamma-secretase expressed in HEK293 cells co-expressing APPsw-lon assessed as reduction of total amyloid beta/amyloid-beta-42 ratio by sandwich immunoassay. It is filed as cell-based.

Chain of hERG (KCNH2) (Q12809 whole entry): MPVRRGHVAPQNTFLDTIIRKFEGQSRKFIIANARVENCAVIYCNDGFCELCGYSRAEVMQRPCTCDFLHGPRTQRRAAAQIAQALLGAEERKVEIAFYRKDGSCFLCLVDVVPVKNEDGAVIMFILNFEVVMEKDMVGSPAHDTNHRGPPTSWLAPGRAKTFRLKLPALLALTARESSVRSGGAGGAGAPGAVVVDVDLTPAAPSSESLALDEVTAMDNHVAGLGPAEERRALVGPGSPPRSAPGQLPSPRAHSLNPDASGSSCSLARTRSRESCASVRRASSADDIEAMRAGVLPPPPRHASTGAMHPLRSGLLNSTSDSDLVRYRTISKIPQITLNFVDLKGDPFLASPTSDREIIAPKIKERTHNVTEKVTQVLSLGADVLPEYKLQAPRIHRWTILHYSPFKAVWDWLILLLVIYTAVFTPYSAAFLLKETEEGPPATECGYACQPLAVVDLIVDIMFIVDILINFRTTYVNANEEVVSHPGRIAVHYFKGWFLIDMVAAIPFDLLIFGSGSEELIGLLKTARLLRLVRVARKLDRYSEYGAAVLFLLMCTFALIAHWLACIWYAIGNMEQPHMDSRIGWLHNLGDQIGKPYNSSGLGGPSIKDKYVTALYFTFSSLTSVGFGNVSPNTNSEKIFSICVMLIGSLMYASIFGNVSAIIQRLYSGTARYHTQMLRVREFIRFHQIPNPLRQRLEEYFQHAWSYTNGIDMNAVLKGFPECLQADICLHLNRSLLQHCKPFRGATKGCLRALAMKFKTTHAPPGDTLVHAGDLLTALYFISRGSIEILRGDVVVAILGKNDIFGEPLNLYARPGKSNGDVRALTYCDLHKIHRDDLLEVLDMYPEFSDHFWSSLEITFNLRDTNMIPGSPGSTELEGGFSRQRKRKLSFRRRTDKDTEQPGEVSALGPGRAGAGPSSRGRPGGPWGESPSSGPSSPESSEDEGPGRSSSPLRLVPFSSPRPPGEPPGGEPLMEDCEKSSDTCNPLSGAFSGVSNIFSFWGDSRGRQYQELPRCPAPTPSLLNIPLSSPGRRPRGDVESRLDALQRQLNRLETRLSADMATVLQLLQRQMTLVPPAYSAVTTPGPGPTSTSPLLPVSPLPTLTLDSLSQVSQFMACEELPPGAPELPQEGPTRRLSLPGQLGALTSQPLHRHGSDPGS

Broadly, the AUC(0-t) is the area under the concentration-time curve up to a stated or last time point. Usually inhibition in vivo stands for the relative decrease from the control value, in per cent. For orientation: inhibition means the percentage by which the read-out fell short of the control. One may read the IC50 as the point on the concentration scale where inhibition reaches its midpoint. On to `COc1cc(/C=C2\CCCN3C[C@H](c4cc(F)c(F)c(F)c4)ON=C23)ccc1-n1cnc(C)c1`, for which the concentration at 6 h in data set [1] stood at 1880 ng/g. This compound returned an AUC(0-t) at 6 h in [2] of 24.3 µM·h. Moreover, in data set [3], the Kp at 6 h turned out to be 1. Also, in the data set on Rattus norvegicus, the inhibition in vivo at 10 mg/kg was 45%. Besides, the inhibition at 10 µM at hERG (KCNH2) stood at 83%. Further, the Activity result in data set [4] was “Not Active”. On Gamma-secretase, the IC50 is 48 nM. In addition, the “inhibition (INH)” value in data set [5] is on record as “Not Active”. Moreover, the Ratio in data set [6] amounted to 328.
